Measurements reported in patent publication US20070293399A1, “SUBSTITUTED DIAMINO-1,3,5-TRIAZINES, PROCESSES FOR THEIR PREPARATION AND THEIR USE AS HERBICIDES AND CROP GROWTH REGULATORS” (Bayer CropScience AG, priority 2006, published 2007).

Assays:
[1] = tested on: Sinapis alba, Echinochloa crus-galli, Lolium multiflorum, Stellaria media, Cyperus iria, Amaranthus retroflexus, Setaria viridis, Avena sativa, Lamium …; assay: Post-emergence herbicidal action (greenhouse pot test); format: in vivo; details: application rate of 1 kg and less of active substance per hectare; treated at three-leaf stage; scored visually after approx. 3 to 4 weeks in comparison to untreated controls
Protocol: Seeds or rhizome pieces of mono- and dicotyledonous weeds were placed in sandy loam in plastic pots, covered with soil and grown in a greenhouse under good growth conditions. Three weeks after the sowing, the test plants were treated at the three-leaf stage. The inventive compounds formulated as spray powders or as emulsion concentrates were sprayed onto the green plant parts in various dosages with an application rate of from 600 to 800 l/ha of water (converted). After the test plants had been left to stand in the greenhouse under optimal growth conditions for approx. 3 to 4 weeks, the action of the preparations was scored visually in comparison to untreated controls. The inventive compositions also had good post-emergence herbicidal activity against a wide spectrum of economically important gramineous and broadleaf weeds.

[2] = tested on: Stellaria media, Lolium multiflorum, Amaranthus retroflexus, Sinapis alba, Avena sativa and Setaria viridis; assay: Pre-emergence herbicidal action (greenhouse pot test); format: in vivo; details: application rate of 1 kg or less of active substance per hectare; scored visually after 3 to 4 weeks in comparison to untreated controls
Text: Seeds or rhizome pieces of mono- and dicotyledonous weed plants were placed in sandy loam in plastic pots and covered with soil. The inventive compounds, which have been formulated in the form of wettable powders or emulsion concentrates, were then applied to the surface of the covering soil as an aqueous suspension or emulsion in different dosages with an application rate of from 600 to 800 l/ha of water (converted).

SMILES | herbicidal action against harmful plants in the post-emergence method [1] | herbicidal action against harmful plants in the pre-emergence method [2]
CC(=O)Nc1ncnc(NC2c3cc(F)ccc3CC2C)n1 (racemic) [Compound 1.1] | very good herbicidal action | very good herbicidal action
CC1Cc2ccc(F)cc2C1Nc1ncnc(NC(=O)C(Cl)(Cl)Cl)n1 (racemic) [Compound 1.2] | very good herbicidal action | very good herbicidal action
CC1Cc2ccc(F)cc2C1Nc1ncnc(NC(=O)C(F)(F)F)n1 (racemic) [Compound 1.3] | very good herbicidal action | very good herbicidal action
CC1Cc2ccc(F)cc2C1Nc1ncnc(NC(=O)CCl)n1 (racemic) [Compound 1.4] | very good herbicidal action | very good herbicidal action
CCC(=O)Nc1ncnc(NC2c3cc(F)ccc3CC2C)n1 (racemic) [Compound 1.5] | very good herbicidal action | very good herbicidal action
COC(=O)Nc1nc(CF)nc(NC2c3cc(F)ccc3CC2C)n1 (racemic) [Compound 1.11] | very good herbicidal action | very good herbicidal action
CCC(=O)Nc1nc(CF)nc(NC2c3cc(F)ccc3CC2C)n1 (racemic) [Compound 1.12] | very good herbicidal action | very good herbicidal action
CC1Cc2ccc(F)cc2C1Nc1nc(CF)nc(NC(=O)C(F)(F)F)n1 (racemic) [Compound 1.13] | very good herbicidal action | very good herbicidal action
CC1Cc2ccc(F)cc2C1Nc1nc(CF)nc(NC(=O)C(Cl)(Cl)Cl)n1 (racemic) [Compound 1.14] | very good herbicidal action | very good herbicidal action
CC(=O)Nc1nc(NC2CCOc3c(C)cc(F)cc32)nc(C2CC2)n1 (racemic) [Compound 1.31] | very good herbicidal action | very good herbicidal action
COCc1nc(NC(C)=O)nc(NC2CCc3ccccc32)n1 (racemic) [Compound 1.32] | very good herbicidal action | very good herbicidal action
CC(=O)Nc1nc(NC2CCOc3c(C)cc(F)cc32)nc(C(C)Cc2ccc(F)cc2)n1 (racemic) [Compound 1.33] | very good herbicidal action | very good herbicidal action
CCC(=O)Nc1nc(NC2CCOc3c(C)cc(F)cc32)nc(C(C)Cc2ccc(F)cc2)n1 (racemic) [Compound 1.38] | very good herbicidal action | very good herbicidal action
COCc1nc(NC(C)=O)nc(NC2CCCc3c(C)cc(C)cc32)n1 (racemic) [Compound 1.39] | very good herbicidal action | very good herbicidal action
CC(=O)Nc1ncnc(NC2c3cccc(C)c3CC2C)n1 (racemic) [Compound 1.46] | very good herbicidal action | very good herbicidal action
CC(=O)Nc1ncnc(NC2CCOc3ccc(C)cc32)n1 (racemic) [Compound 1.47] | very good herbicidal action | very good herbicidal action
Cc1ccc2c(c1)C(Nc1nc(NC(=O)C(Cl)(Cl)Cl)nc(C(C)F)n1)CCO2 (racemic) [Compound 1.51] | very good herbicidal action | very good herbicidal action
Cc1ccc2c(c1C)OCCC2Nc1nc(NC(=O)C2CC2)nc(C2CC2)n1 (racemic) [Compound 1.70] | very good herbicidal action | very good herbicidal action
CC(=O)Nc1ncnc(N[C@@H]2CCCc3ccccc32)n1 [Compound 2.1, N1-{4-[(1R)-1,2,3,4-Tetrahydro-1-naphthylamino]-1,3,5-triazin-2-yl}acetamide] | very good herbicidal action | very good herbicidal action
CCC(=O)Nc1ncnc(N[C@@H]2CCCc3ccccc32)n1 [Compound 2.2] | very good herbicidal action | very good herbicidal action
CC(=O)Nc1ncnc(N[C@H]2c3cc(C)ccc3C[C@@H]2C)n1 [Compound 2.9] | very good herbicidal action | very good herbicidal action
Cc1ccc2c(c1)[C@H](Nc1ncnc(NC(=O)C(F)(F)F)n1)[C@@H](C)C2 [Compound 2.12, N-(4-{[(1R,2S)-2,6-Dimethyl-2,3-dihydro-1H-inden-1-yl]-amino}-1,3,5-triazin-2-yl)-2,2,2-trifluoroacetamide] | very good herbicidal action | very good herbicidal action
CC(=O)Nc1nc(N[C@H]2c3cc(C)ccc3C[C@@H]2C)nc([C@@H](C)F)n1 [Compound 2.13] | very good herbicidal action | very good herbicidal action
CCC(=O)Nc1nc(N[C@H]2c3cc(C)ccc3C[C@@H]2C)nc([C@@H](C)F)n1 [Compound 2.14] | very good herbicidal action | very good herbicidal action
Cc1ccc2c(c1)[C@H](Nc1nc(NC(=O)C(F)(F)F)nc([C@@H](C)F)n1)[C@@H](C)C2 [Compound 2.26] | very good herbicidal action | very good herbicidal action
CC(=O)Nc1nc(N[C@@H]2CCCc3ccccc32)nc([C@@H](C)F)n1 [Compound 2.31] | very good herbicidal action | very good herbicidal action
C[C@@H](F)c1nc(NC(=O)C(F)(F)F)nc(N[C@@H]2CCCc3ccccc32)n1 [Compound 2.32] | very good herbicidal action | very good herbicidal action
CC(=O)Nc1nc(C)nc(N[C@H]2c3cc(C)ccc3C[C@@H]2C)n1 [Compound 2.33] | very good herbicidal action | very good herbicidal action
